Laboratory results published in patent publication US20130129675A1, “INTERFERON THERAPIES IN COMBINATION WITH BLOCKADE OF STAT3 ACTIVATION” (BOARD OF REGENTS, THE UNIVERSITY OF TEXAS SYSTEM, priority 2009, published 2013).

Columns and labels:
[1] = system: Tregs (CD4+Foxp3+); assay: Inhibition of Tregs in vivo; set-up: species or system mice; details: for number of Foxp3+ Tregs in the thymus, lymph nodes, or spleen: alone or in combination; for % of CD4+ Foxp3+ Cells: bone marrow, control 24.5; for % of CD4+ Foxp3+ Cells / inhibition of the number of Tregs (CD4+Foxp3+) in the bone marrow: non-tumor bearing mice treated for 16 days; for inhibition of the number of Tregs (CD4+Foxp3+) in the peripheral blood / inhibition of the number of Tregs (CD4+Foxp3+) in the bone marrow: compared with control
Method: Determination of inhibition of Tregs in vivo. […] Single-cell suspensions were prepared from bone marrows, lymph nodes, spleens, thymuses and peripheral blood of mice. Single cells were surface-stained by FITC-conjugated anti-CD4 (L3T4), PerCP-conjugated anti-CD8 (53-6.7) and APC-conjugated anti-CD25 (PC61), and the cells were further subjected to intracellular staining with PE-conjugated mAbs to mouse FoxP3 (clone FJK-16s; eBioscience, San Diego, Calif.) using staining buffers and conditions specified by the manufacturer.
In vivo treatment of mice with IFN-α and WP1193 inhibits bone marrow-derived Tregs but combinational therapy is not synergistic. To ascertain the in vivo effects of IFN-α and WP1193, and in combination on Tregs, non-tumor bearing mice were treated for 16 days.

[2] = system: B16 target cells (CD3+CD8+ T effector cells); assay: CD8+ T cell cytotoxicity assay against melanoma cells; type: cell-based, mice; details: WP1193 2 μM, IFN-α 20 ng/ml, 48 h, control 10.8
Method: Splenocytes were prepared as described above. NK1.1+CD3− NK effector cells or CD3+CD8+ T effector cells were sorted from splenocytes on a FACSAria Cell Sorter (BD Biosciences) with FITC-conjugated anti-mouse NK1.1 (eBioscience), PE-conjugated anti-CD3, and allophycocyanin (APC)-conjugated anti-CD8 antibodies (Miltenyi Biotec, Auburn, Calif.). B16 target cells were prepared as described above. The ratio of NK1.1+CD3− NK effector cells or CD8+ T effector cells to B16 target cells was 10:1 and 5:1, respectively. In the presence of NK1.1+CD3− NK cells or CD8+ T cells, treatment groups consisted of B16 target cells alone; B16 cells with 2 μM of WP1193; B16 cells with 20 ng/ml of IFN-α; B16 cells with 2 µM of WP1193 and 20 ng/ml of IFN-α. After 48 hours of incubation, the CFSE-labeled B16 melanoma cells were removed from the plates with trypsin and analyzed by FACS. Then, B16 cells were stained with PI (BD Biosciences) to distinguish viable cells from nonviable cells. B16 cells that were stained with CFSE and PI were considered nonviable. Flow cytometric acquisition of the B16 target cells was performed with a FACSCalibur flow cytometer (BD Biosciences), and data analysis was performed using FlowJo software (TreeStar). […]

[3] = system: serum cytokines; assay: Serum cytokine levels (Bio-Plex); type: in vivo, C57BL/6J mice; details: for IFN-gamma Concentration: control 1.5; for IL-1B Concentration: control 40.1; for TNF alpha Concentration: control 60.5
Method: Determination of serum cytokine levels. Groups of non-tumor bearing 4- to 6-week-old female mice were treated with either IFN-α or “empty” plasmid control, WP1193, or IFN-α in combination with WP1193 as described in FIG. 13. Blood was collected through a tail vein from mice 9 and 16 days after the first WP1193 administration. […] The assay was run according to the manufacturer's instruction (Bio-Rad) by the Immunology Core Service at MD Anderson Cancer Center (Houston, Tex.).
This experiment was reproduced twice in its entirety with identical findings.

[4] = system: B16 cells; assay: MHC I, MHC II and NK cell ligands on B16 melanoma cells (flow cytometry); type: cell-based, murine; details: WP1193 2 μM, IFN-α 20 ng/ml; for MHC I expression on B16: 24 hours (FIG. 6A); for surface H60, Rae-1 and CD155 (NK ligands) on B16: 24 hours (FIG. 6B)
Method: To ascertain the MHC I, MHC II, and NK ligands expressed on melanoma cells, B16 cells were seeded at a density of 2×10^6 cells/well in 24-well culture plates and cultured with the RPMI 1640 medium in the absence or presence of WP1193 (2 μM) and/or INF-α (20 ng/ml) for 24 hours. Afterwards, the cells were harvested and washed twice, and 10^6 cells in duplicate were Fc blocked with purified rat anti-mouse CD16/CD32 (BD Biosciences) for 15 minutes at room temperature. The B16 cells were washed and then stained for approximately 30 minutes at 4° C. with FITC-conjugated rat anti-mouse MHC I mAb (Abeam, Cambridge, Mass.), PE-conjugated rat anti-mouse MHC Class II mAb (Abeam), FITC-conjugated rat anti-mouse Rae-1 mAb (R&D Systems), APC-conjugated rat anti-mouse H60 mAb (R&D Systems) or PE-conjugated rat anti-mouse CD155 mAb (Biolegend). Negative control cells were stained with the corresponding isotypes. Following incubation, the cells were washed twice with FACS buffer and then analyzed with a BD FACSCalibur with gates set for viable cells.
Because we observed NK and CD8+ T cell-mediated anti-tumor cytotoxicity were enhanced with combinational therapy, to ascertain if either IFN-α, WP1193 or both were augmenting the expression of MHC or NK activating receptors or their ligands, splenocytes and B16 cells were treated with RPMI 1640 medium (control), WP1193 (2 μM), IFN-α (20 ng/ml), or IFN-α (20 ng/ml)+WP1193 (2 μM) for 24 hours. The NK-activating ligands (Rae-1, H60 and CD155) and MHC (I and II) on B16 cells and the NK-activating receptors (NKG2D, KLRD1, NKp46 and DNAM-1) on NK1.1+ NK cells were analyzed by flow cytometric analysis.

Row | Molecule | suppressive activity of sorted Tregs ([1]; FoxP3-GFP reporter mouse, IFN-α-treated or control) | number of Foxp3+ Tregs in the thymus, lymph nodes, or spleen [1] | % of CD4+ Foxp3+ Cells [1] [%] | inhibition of the number of Tregs (CD4+Foxp3+) in the peripheral blood [1] [%] | inhibition of the number of Tregs (CD4+Foxp3+) in the bone marrow [1] [%] | % of B16 Killimg [2] [%] | IFN-gamma Concentration [3] | IL-1B Concentration [3] [pg/mL] | TNF alpha Concentration [3] [pg/mL] | MHC I expression on B16 [4] | surface H60, Rae-1 and CD155 (NK ligands) on B16 [4]
1 | IFN-α | did not see a decrease in the suppressive activity | did not inhibit | 5.2 | 46 | 78 | 14.3 | 20.2 pg/mL | 41.3 | 98.7 | enhanced | do not alter the receptor density of the NK ligands
2 | N#C/C(=C\c1cccc(Br)n1)C(=O)N[C@H](c1ccccc1)C1CC1 [WP1193, (S,E)-3-(6-bromopyridin-2-yl)-2-cyano-N-(cyclopropyl(phenyl)methyl)acrylamide] |  | did not inhibit | 16.8 | 20 | 31 | 11.2 | Not detected | 20.0 | 60.0 | not further enhanced | do not alter the receptor density of the NK ligands
